Assay results reported in patent publication US20090068290A1, “BIFEPRUNOX DOSES FOR TREATING SCHIZOPHRENIA” (priority 2006, published 2009).

Experiments:
Type in all cases: in vivo, human
[1] = tested on: adult subjects with schizophrenia; assay: BPRS total score, Clinical Study Three; details: for BPRS total score, treatment effect (bifeprunox—placebo): Endpoint LOCF; for mean change (SD) from Baseline to Endpoint in BPRS total score / Change from Baseline in BPRS Total Score, Mean (SD) / Change from Baseline in BPRS Total Score, Median / Change from Baseline in BPRS Total Score, Trt Effect (bifeprunox—placebo): LOCF; for mean change (SD) from Baseline to Endpoint in BPRS total score: ITT; for Change from Baseline in BPRS Total Score, Mean (SD) / Change from Baseline in BPRS Total Score, Median / Change from Baseline in BPRS Total Score, Trt Effect (bifeprunox—placebo): ITT population
Description: SECONDARY OBJECTIVES To assess the efficacy of bifeprunox in treating schizophrenia using the Positive Symptom sub-scale score of the PANSS, the Negative Symptom sub-scale score of the PANSS, the General Psychopathology sub-scale of the PANSS, Brief Psychiatric Rating Scale (BPRS) total score derived from the PANSS, BPRS psychosis score derived from the PANSS, the Clinical Global Impression Severity of Illness score (CGI-S), the Clinical Global Impression Improvement score (CGI-I), CGI-I responder rate, PANSS responder rate based on the PANSS total score, Calgary Depression Scale for Schizophrenia (CDSS), and Subject Satisfaction rating.
There were four treatment arms in this study, approximately 144 subjects per arm. […] After completing the Single-Blind Placebo Lead-in Period of at least three days, bifeprunox-treated subjects were titrated from 0.25 mg up to 20 mg/day or 30 mg/day according to a standardized titration scheme over a seven- or eight-day period, respectively. When the assigned dose was reached, subjects were maintained at that dose for the remainder of the six week treatment period. […] Subjects were hospitalized (if not already inpatients) after eligibility for study entry was verified, starting from the Screening Visit until at least 10 days after Baseline. Subjects could be hospitalized longer than 10 days if considered medically necessary by the Investigator. Rating scale assessments for efficacy and abnormal movement disorders were done weekly except for Week 5. […] Subject satisfaction with study medication was assessed at Week 6.

[2] = tested on: adult subjects with schizophrenia; assay: BPRS psychosis cluster score, Clinical Study Two; details: for Change from Baseline in BPRS Psychosis Cluster Score, Mean (SD) / Change from Baseline in BPRS Psychosis Cluster Score, Median / Change from Baseline in BPRS Psychosis Cluster Score, Trt Effect (bifeprunox—placebo) / mean change (SD) from Baseline to Endpoint in BPRS psychosis cluster score: LOCF; for Change from Baseline in BPRS Psychosis Cluster Score, Mean (SD) / Change from Baseline in BPRS Psychosis Cluster Score, Median / Change from Baseline in BPRS Psychosis Cluster Score, Trt Effect (bifeprunox—placebo): ITT population; for BPRS psychosis cluster score, treatment effect (bifeprunox—placebo): Endpoint LOCF; for mean change (SD) from Baseline to Endpoint in BPRS psychosis cluster score: ITT
Description: (§1) Rating scale assessments were performed weekly, except for week 5, to measure the change from baseline to endpoint of the PANSS total score. Other assessments included: PANSS positive symptom subscale score, PANSS negative symptom subscale score, PANSS general pschopathology subscale score, BPRS total score, BPRS psychosis score, the CGI-S score, the CGI-I score, responder rates based on the PANSS total score, and the Calgary Depression Scale for Schizophrenia (CDSS). […]
(§2) Subjects who completed this study had the option to continue in the long-term. […] Risperidone-treated subjects were titrated from 2 mg to 6 mg daily over a three-day period and were subsequently maintained at 6 mg/day for the remainder of the treatment period. […] Blood samples were also obtained at Screening/Baseline, Week 3, and Week 6 for clinical laboratory assessments.

[3] = tested on: adult subjects with schizophrenia; assay: PANSS positive symptom subscale score, Clinical Study Two; details: LOCF, ITT; for PANSS Positive Symptom Subscale Score, Trt Effect (bifeprunox—placebo): ANCOVA
Description: as §1, §2

[4] = tested on: adult subjects with schizophrenia; assay: CGI responder rate, Clinical Study Two; details: LOCF
Description: Notable differences were also observed between the 30 mg bifeprunox group and placebo for the change from baseline to endpoint in PANSS general psychopathology subscale score, BPRS total score, BPRS psychosis cluster score, PANSS responder rate, and CGI-I responder rate. In the study, a PANSS responder refers to a subject whose PANSS total score decreased by 20% or more from baseline to endpoint. A CGI-I responder refers to a subject who was categorized as “very much improved” or “much improved” in the CGI Global Improvement scale at endpoint.
Pharmacokinetic (PK) data of bifeprunox in schizophrenic subjects were also assessed and are presented in a separate report (combined with data from study S1543003).
as §2
CLINICAL STUDY TWO: A CGI responder is defined as a subject who is categorized as “very much improved” or “much improved” on the CGI Improvement scale. […] A notable difference between the 30 mg bifeprunox group and placebo was seen (p=0.039).

[5] = 'the mg bifeprunox group' (dose not given)
[6] = Bifeprunox 20 mg, Week 6/Endpoint
[7] = Bifeprunox 30 mg, Week 6/Endpoint
[8] = Bifeprunox 40 mg, Week 6/Endpoint

O=c1[nH]c2cccc(N3CCN(Cc4cccc(-c5ccccc5)c4)CC3)c2o1 [Bifeprunox, 7-[4-([1,1′-biphenyl]-3-ylmethyl)-1-piperazinyl]-2(3H)-benzoxazolone]
BPRS total score, treatment effect (bifeprunox—placebo) [1, 5]: −2.1
mean change (SD) from Baseline to Endpoint in BPRS total score [1, 5]: −7.9 (12.0)
Change from Baseline in BPRS Total Score, Mean (SD) ([1]; Bifeprunox 20 mg, Week 1): −3.2 (7.3)
Change from Baseline in BPRS Total Score, Median ([1]; Bifeprunox 20 mg, Week 1): −3
Change from Baseline in BPRS Total Score, Mean (SD) ([1]; Bifeprunox 20 mg, Week 2): −6.0 (9.1)
Change from Baseline in BPRS Total Score, Median ([1]; Bifeprunox 20 mg, Week 2): −7
Change from Baseline in BPRS Total Score, Mean (SD) ([1]; Bifeprunox 20 mg, Week 3): −7.5 (10.3)
Change from Baseline in BPRS Total Score, Median ([1]; Bifeprunox 20 mg, Week 3): −8
Change from Baseline in BPRS Total Score, Mean (SD) ([1]; Bifeprunox 20 mg, Week 4): −8.1 (11.3)
Change from Baseline in BPRS Total Score, Median ([1]; Bifeprunox 20 mg, Week 4): −9
Change from Baseline in BPRS Total Score, Mean (SD) [1, 6]: −8.5 (11.9)
Change from Baseline in BPRS Total Score, Median [1, 6]: −8
Change from Baseline in BPRS Total Score, Trt Effect (bifeprunox—placebo) [1, 6]: −2.1
Change from Baseline in BPRS Total Score, Mean (SD) ([1]; Bifeprunox 30 mg, Week 1): −3.6 (7.3)
Change from Baseline in BPRS Total Score, Median ([1]; Bifeprunox 30 mg, Week 1): −4
Change from Baseline in BPRS Total Score, Mean (SD) ([1]; Bifeprunox 30 mg, Week 2): −5.2 (9.3)
Change from Baseline in BPRS Total Score, Median ([1]; Bifeprunox 30 mg, Week 2): −6
Change from Baseline in BPRS Total Score, Mean (SD) ([1]; Bifeprunox 30 mg, Week 3): −6.7 (10.7)
Change from Baseline in BPRS Total Score, Median ([1]; Bifeprunox 30 mg, Week 3): −7
Change from Baseline in BPRS Total Score, Mean (SD) ([1]; Bifeprunox 30 mg, Week 4): −7.3 (10.9)
Change from Baseline in BPRS Total Score, Median ([1]; Bifeprunox 30 mg, Week 4): −8
Change from Baseline in BPRS Total Score, Mean (SD) [1, 7]: −7.9 (12.0)
Change from Baseline in BPRS Total Score, Median [1, 7]: −9
Change from Baseline in BPRS Total Score, Trt Effect (bifeprunox—placebo) [1, 7]: −1.1
mean change (SD) from Baseline to Endpoint in BPRS total score ([1]; bifeprunox 20 mg): −8.5 (11.9)
BPRS total score, treatment effect (bifeprunox—placebo) ([1]; bifeprunox 30 mg): −1.1
Change from Baseline in BPRS Psychosis Cluster Score, Mean (SD) ([2]; Bifeprunox 30 mg, Week 1): −1.7 (2.3)
Change from Baseline in BPRS Psychosis Cluster Score, Median ([2]; Bifeprunox 30 mg, Week 1): −1
Change from Baseline in BPRS Psychosis Cluster Score, Median ([2]; Bifeprunox 30 mg, Week 2): −2
Change from Baseline in BPRS Psychosis Cluster Score, Mean (SD) ([2]; Bifeprunox 30 mg, Week 3): −3.1 (3.8)
Change from Baseline in BPRS Psychosis Cluster Score, Median ([2]; Bifeprunox 30 mg, Week 3): −2
Change from Baseline in BPRS Psychosis Cluster Score, Mean (SD) ([2]; Bifeprunox 30 mg, Week 4): −3.1 (3.8)
Change from Baseline in BPRS Psychosis Cluster Score, Median ([2]; Bifeprunox 30 mg, Week 4): −3
Change from Baseline in BPRS Psychosis Cluster Score, Mean (SD) [2, 7]: −3.2 (4.2)
Change from Baseline in BPRS Psychosis Cluster Score, Median [2, 7]: −3
Change from Baseline in BPRS Psychosis Cluster Score, Trt Effect (bifeprunox—placebo) [2, 7]: −1.4
Change from Baseline in BPRS Psychosis Cluster Score, Mean (SD) ([2]; Bifeprunox 40 mg, Week 1): −1.7 (2.6)
Change from Baseline in BPRS Psychosis Cluster Score, Median ([2]; Bifeprunox 40 mg, Week 1): −1
Change from Baseline in BPRS Psychosis Cluster Score, Mean (SD) ([2]; Bifeprunox 40 mg, Week 2): −2.2 (3.5)
Change from Baseline in BPRS Psychosis Cluster Score, Median ([2]; Bifeprunox 40 mg, Week 2): −2
Change from Baseline in BPRS Psychosis Cluster Score, Mean (SD) ([2]; Bifeprunox 40 mg, Week 3): −2.5 (4.0)
Change from Baseline in BPRS Psychosis Cluster Score, Median ([2]; Bifeprunox 40 mg, Week 3): −2
Change from Baseline in BPRS Psychosis Cluster Score, Mean (SD) ([2]; Bifeprunox 40 mg, Week 4): −2.5 (4.2)
Change from Baseline in BPRS Psychosis Cluster Score, Median ([2]; Bifeprunox 40 mg, Week 4): −1
Change from Baseline in BPRS Psychosis Cluster Score, Mean (SD) [2, 8]: −2.6 (4.4)
Change from Baseline in BPRS Psychosis Cluster Score, Median [2, 8]: −2
Change from Baseline in BPRS Psychosis Cluster Score, Trt Effect (bifeprunox—placebo) [2, 8]: −1.0
BPRS psychosis cluster score, treatment effect (bifeprunox—placebo) ([2]; bifeprunox 30 mg): −1.4
mean change (SD) from Baseline to Endpoint in BPRS psychosis cluster score ([2]; bifeprunox 30 mg): −3.2 (4.2)
BPRS psychosis cluster score, treatment effect (bifeprunox—placebo) ([2]; bifeprunox 40 mg): −1.0
mean change (SD) from Baseline to Endpoint in BPRS psychosis cluster score ([2]; bifeprunox 40 mg): −2.6 (4.4)
Change from Baseline in PANSS Positive Symptom Subscale Score, Mean (SD) ([3]; Bifeprunox 30 mg, Week 1): −2.3 (3.6)
Change from Baseline in PANSS Positive Symptom Subscale Score, Median ([3]; Bifeprunox 30 mg, Week 1): −2
Change from Baseline in PANSS Positive Symptom Subscale Score, Mean (SD) ([3]; Bifeprunox 30 mg, Week 2): −4.1 (5.3)
Change from Baseline in PANSS Positive Symptom Subscale Score, Median ([3]; Bifeprunox 30 mg, Week 2): −3
Change from Baseline in PANSS Positive Symptom Subscale Score, Mean (SD) ([3]; Bifeprunox 30 mg, Week 3): −4.5 (5.6)
Change from Baseline in PANSS Positive Symptom Subscale Score, Median ([3]; Bifeprunox 30 mg, Week 3): −4
Change from Baseline in PANSS Positive Symptom Subscale Score, Mean (SD) ([3]; Bifeprunox 30 mg, Week 4): −4.4 (5.9)
Change from Baseline in PANSS Positive Symptom Subscale Score, Median ([3]; Bifeprunox 30 mg, Week 4): −4
Change from Baseline in PANSS Positive Symptom Subscale Score, Mean (SD) [3, 7]: −4.5 (6.6)
Change from Baseline in PANSS Positive Symptom Subscale Score, Median [3, 7]: −4
PANSS Positive Symptom Subscale Score, Trt Effect (bifeprunox—placebo) [3, 7]: −1.9
Change from Baseline in PANSS Positive Symptom Subscale Score, Mean (SD) ([3]; Bifeprunox 40 mg, Week 1): −2.8 (3.9)
Change from Baseline in PANSS Positive Symptom Subscale Score, Median ([3]; Bifeprunox 40 mg, Week 1): −2
Change from Baseline in PANSS Positive Symptom Subscale Score, Mean (SD) ([3]; Bifeprunox 40 mg, Week 2): −3.6 (5.7)
Change from Baseline in PANSS Positive Symptom Subscale Score, Median ([3]; Bifeprunox 40 mg, Week 2): −3
Change from Baseline in PANSS Positive Symptom Subscale Score, Mean (SD) ([3]; Bifeprunox 40 mg, Week 3): −4.1 (6.3)
Change from Baseline in PANSS Positive Symptom Subscale Score, Median ([3]; Bifeprunox 40 mg, Week 3): −4
Change from Baseline in PANSS Positive Symptom Subscale Score, Mean (SD) ([3]; Bifeprunox 40 mg, Week 4): −3.7 (6.6)
Change from Baseline in PANSS Positive Symptom Subscale Score, Median ([3]; Bifeprunox 40 mg, Week 4): −3
Change from Baseline in PANSS Positive Symptom Subscale Score, Mean (SD) [3, 8]: −4.2 (6.9)
Change from Baseline in PANSS Positive Symptom Subscale Score, Median [3, 8]: −4
PANSS Positive Symptom Subscale Score, Trt Effect (bifeprunox—placebo) [3, 8]: −1.7
CGI Responder at Endpoint No, % ([4]; 30 mg): 64%
CGI Responder at Endpoint Yes, % ([4]; 30 mg): 36%
CGI Responder at Endpoint No, % ([4]; 40 mg): 72%
CGI Responder at Endpoint Yes, % ([4]; 40 mg): 28%
CGI-I responder rate (subjects much or very much improved) at Endpoint ([4]; bifeprunox 30 mg): 36%
